Laboratory results taken from patent US20220251039A1, “Diaryl-B-Lactam Compound and Preparation Method and Pharmaceutical Use Thereof” (Fudan University, priority 2016, published 2022).
“Also recorded” adds a separate entry of the source.

Assays:
tubulin [1] = test: Immunoblotting analysis of polymerized/depolymerized tubulin; type: cell-based, human; conditions: Hela cells, 6 h
Experimental: After being treated with diluent (0.2% DMSO), tested compound, CA-4 or PTX for 6 h, Hela cells were lysed with microtubulestabilizing buffer, containing 100 mM PIPES, pH 6.8, 1 mM MgCl2, 2 mM EGTA, 0.5% NP-40, 2 M glycerol, 5 μM PTX and protease inhibitors cocktail (Roche), and the lysate was centrifuged at 15,000 rpm for 15 min. Supernatant containing depolymerized tubulin was carefully collected, whereas pellet (polymerized tubulin) was further dissolved in SDS-lysis buffer (Beyotime, China). Equal amounts of supernatant and dissolved pellet were subjected to immunoblotting analysis as described above using a tubulin antibody (Proteintech).

tubulin [2] = test: Immunofluorescent analysis of tubulin morphology; type: cell-based, human; conditions: SKOV-3 cells, 24 h
Experimental: After treatment with diluent (0.2% DMSO) or tested compounds at indicated concentrations for 24 h, SKOV-3 cells were fixed with methanol, permeabilized with 0.1% Triton X-100 in PBS and blocked by goat serum. Then the cells were incubated with a-tubulin antibody at 4° C. overnight, followed by incubation with Alexa 488 labeled secondary antibody (Jackson ImmunoResearch) at RT for 1 h. After being stained with DAPI, cells were examined and photographed with a Leica SP5 co-focal fluorescence microscope.

MDA-MB-231 cells = test: Colony formation assay; type: cell-based, human; conditions: 48 h treatment, 7-10 days growth
Experimental: 1000 MDA-MB-231 cells per well were seeded into 6-well plate at a single cell density and were cultured at 37° C. for 48 h. After being treated with indicated concentrations of 69, 70 and 97, CA-4 as positive control, or diluent (0.2% DMSO) as negative control for 48 h, the agents containing medium was replaced by fresh medium to allow cell growth for additional 7-10 days. Then the cells were fixed with methanol and stained with gentian violet for 30 min. The number of colonies which consisted of more than 50 cells were counted. The results were indicated as mean values from three independent determinations.

[3] = test system: p-histone H3, cyclin B1 and BuBR1; test: Cell cycle associated proteins assay; type: cell-based, human; conditions: HeLa cells, 24 h, Western blot and qPCR
Experimental: A. HeLa cells were treated with 69, 70, 97 or DMSO for 24 h. After being harvested, the cells were lysed, and the concentrations of total protein were determined by BCA protein assay kit (Beyotime, China). […] The membrane was blocked with 5% BSA in TBST for 1.5 h, then incubated overnight with specific primary antibodies (Proteintech) at 4° C. After being washed three times by TBST, the membrane was incubated with specific secondary antibodies (Abnova, Taipei, China) at room temperature for 2 h. Finally, chemiluminescent reagents (Millipore) were employed to detect the protein bands.
(§1) B. Quantitative PCR assay: HeLa cells were treated with 69, 70 or 97. The expression level of mRNA of target proteins was tested with qPCR kit (Takara).

cellular apoptosis = test: Cell apoptosis analysis (Annexin V/PI); type: cell-based; conditions: 48 h, Annexin-V/PI flow cytometry
Experimental: Cell apoptosis was detected using FITC Annexin V Apoptosis Detection Kit (BD Biosciences) according to manufacturer's instructions. Briefly, cells were incubated with indicated concentrations of 69, 70 and 97, CA-4 as positive control or diluent (0.2% DMSO) as negative control for 48 h. Then the cells were harvested, washed twice with PBS, and re-suspended in binding buffer. After being stained with Annexin-V and PI for 15 min in the dark place, cells were subjected to flow cytometry (Cytomics FC 500 MPL, Beckman Coulter) analysis. The results were indicated as mean values from three independent determinations.

[4] = test system: Bax, p53 and cleaved-PARP; test: Expression level of apoptosis associated proteins; type: cell-based, human; conditions: HeLa cells, Western blot and qPCR
Experimental: A. Western blotting: After being treated with candidate compound, cells were harvested and lysed. Then, the lysate was isolated by ultracentrifuge and quantified by BCA assay according to the protocol. After being denatured, equivalent protein of each sample was separated by SDS-PAGE gel and wet-transferred onto […] nitrocellulose membrane. After being blocked by PBS containing 5% skim milk, the membrane was incubated with primary antibody at 4° C. overnight and secondary antibody at room temperature for 2 h and then visualized by enhanced chemiluminescence kit (Thermo Fisher, USA), sequentially.
as §1

KM mice = test: Acute toxicity assay; type: in vivo
Experimental: KM mice were housed individually in a specific pathogen free facility. Groups of mice (n=10 per group, half male and half female) were injected intraperitoneally once with various dosages of 69 (95, 70, 50, 35, 25 mg/kg), 70 (500, 425, 350, 275, 200 mg/kg), 97 (275, 200, 150, 125 and 100 mg/kg) or vehicle (8.3% cremohorp EL and 8.3% alcohol in PBS) as negative control, respectively. 69, 70 and 97 was dissolved in cremeohore EL and alcohol mixture (1:1, v/v) and further diluted with PBS (1:5, v/v). The death of mice were monitored daily and recorded up to 14 days after injection.

A2780 cells = test: Xenografts tumor growth assay in nude mice; type: in vivo, Balb/c nude mice; conditions: A2780 xenograft
Experimental: 6 weeks old female Balb/c nude mice were purchased from Shanghai Slac Laboratory Animal Co. Ltd. (Shanghai, China). 2*10^6 A2780 cells suspended in 0.2 mL PBS per mouse was injected subcutaneously into the nude mice. […] Administration of agents or vehicle, or agents and measurement of tumor volumes with a digital caliper was done once every 2 days. Tumor volumes were calculated as volume=shortest diameter (W)^2*longest diameter (L)*0.52. When the average tumor volumes of vehicle treated group reached 2000 mm^3 in diameter, the mice were sacrificed and the tumors were isolated and weighed. Visceral organs of the mice as well as solid tumors were further analyzed by H&E staining.

COc1ccc([C@H]2[C@@H](C)C(=O)N2c2cc(OC)c(OC)c(OC)c2)cc1O [Compound 70, (3R,4R)-4-(3-hydroxy-4-methoxyphenyl)-3-methyl-1-(3,4,5-trimethoxyphenyl)azetidin-2-one]
polymerized tubulin (immunoblotting) (tubulin [1]): significantly inhibit tubulin aggregation; also recorded: dramatically reduction of polymerized tubulin
tubulin assembly (immunofluorescence) (tubulin [2]): significantly inhibit tubulin aggregation; also recorded: strongly inhibit tubulin assembly in cancer cells
colony formation (MDA-MB-231 cells): significantly inhibit the formation of colonies of cancer cells
expression of p-histone H3, cyclin B1 and BuBR1 [3]: significantly promote the expression of phosphorylated histone H3, cyclin B1, and mitotic checkpoint protein BuBR1
cellular apoptosis (cellular apoptosis): significantly promote apoptosis; also recorded: significantly induce cellular apoptosis
expression of Bax, p53 and cleaved-PARP [4]: significantly promote the expression of the proapoptotic protein Bax, the tumor suppressor gene p53, and the cleaved DNA repair enzyme; also recorded: significantly induce the expression of Bax, p53 and cleaved-PARP
No. of dead mice 5-14 days (KM mice; 200 mg/kg i.p. once): 0
No. of dead mice 1 day (KM mice; 200 mg/kg i.p. once): 0
No. of dead mice 2 days (KM mice; 200 mg/kg i.p. once): 0
No. of dead mice 3 days (KM mice; 200 mg/kg i.p. once): 0
No. of dead mice 4 days (KM mice; 200 mg/kg i.p. once): 0
No. of dead mice Total death (KM mice; 200 mg/kg i.p. once): 0
Survival (%) on day 14 (KM mice; 200 mg/kg i.p. once): 100%
No. of dead mice 5-14 days (KM mice; 275 mg/kg i.p. once): 1
No. of dead mice 1 day (KM mice; 275 mg/kg i.p. once): 0
No. of dead mice 2 days (KM mice; 275 mg/kg i.p. once): 0
No. of dead mice 3 days (KM mice; 275 mg/kg i.p. once): 0
No. of dead mice 4 days (KM mice; 275 mg/kg i.p. once): 1
No. of dead mice Total death (KM mice; 275 mg/kg i.p. once): 2
Survival (%) on day 14 (KM mice; 275 mg/kg i.p. once): 80%
No. of dead mice 5-14 days (KM mice; 350 mg/kg i.p. once): 0
No. of dead mice 1 day (KM mice; 350 mg/kg i.p. once): 0
No. of dead mice 2 days (KM mice; 350 mg/kg i.p. once): 0
No. of dead mice 3 days (KM mice; 350 mg/kg i.p. once): 1
No. of dead mice 4 days (KM mice; 350 mg/kg i.p. once): 0
No. of dead mice Total death (KM mice; 350 mg/kg i.p. once): 1
Survival (%) on day 14 (KM mice; 350 mg/kg i.p. once): 90%
No. of dead mice 5-14 days (KM mice; 425 mg/kg i.p. once): 0
No. of dead mice 1 day (KM mice; 425 mg/kg i.p. once): 0
No. of dead mice 2 days (KM mice; 425 mg/kg i.p. once): 0
No. of dead mice 3 days (KM mice; 425 mg/kg i.p. once): 3
No. of dead mice 4 days (KM mice; 425 mg/kg i.p. once): 0
No. of dead mice Total death (KM mice; 425 mg/kg i.p. once): 3
Survival (%) on day 14 (KM mice; 425 mg/kg i.p. once): 70%
No. of dead mice 5-14 days (KM mice; 500 mg/kg i.p. once): 0
No. of dead mice 1 day (KM mice; 500 mg/kg i.p. once): 0
No. of dead mice 2 days (KM mice; 500 mg/kg i.p. once): 0
No. of dead mice 3 days (KM mice; 500 mg/kg i.p. once): 4
No. of dead mice 4 days (KM mice; 500 mg/kg i.p. once): 0
No. of dead mice Total death (KM mice; 500 mg/kg i.p. once): 4
Survival (%) on day 14 (KM mice; 500 mg/kg i.p. once): 60%
tumor growth in vivo (A2780 cells; i.p. once every 2 days, 69 7.5 mg/kg, 70 12.5 mg/kg, 97 4 or 8 mg/kg): significantly inhibit tumor growth in vivo; also recorded: anti-tumor activities in vivo
H&E staining of liver, kidney and spleen (A2780 cells; treated groups): no abnormal areas are observed in tissue staining of liver, kidney and spleen; also recorded: no detectable abnormalities were observed in liver, kidney and spleen
H&E staining of tumor sections (necrosis) (A2780 cells; treated groups): cause tumor tissue to produce necrotic areas; also recorded: extensive areas of necrosis or cell death
